# Reference: ChEMBL document CHEMBL3885881, “DrugMatrix”
# Organism: Rattus norvegicus
# Test: DrugMatrix - Regimen: Daily Repeat
# Assay type: toxicity, organism-based, Sprague-Dawley
# Parameters: regimen Daily Repeat, gender Male, age 6-8 weeks
# Details: in vivo, sc, route subcutaneous, […]; for ABSOLUTE BASOPHIL / ABSOLUTE EOSINOPHIL / ABSOLUTE LYMPHOCYTE / ABSOLUTE MONOCYTE / ABSOLUTE SEGMENTED NEUTROPHIL / BASOPHIL / EOSINOPHIL / ERYTHROCYTE COUNT / HEMATOCRIT / HEMOGLOBIN / LEUKOCYTE COUNT / LYMPHOCYTE / MEAN CORPUSCULAR HEMOGLOBIN / MEAN CORPUSCULAR HEMOGLOBIN CONCENTRATION / MEAN CORPUSCULAR VOLUME / MONOCYTE / NEUTROPHIL / NUCLEATED RED BLOOD CELLS / PLATELET COUNT: tissue Blood; for ALANINE AMINOTRANSFERASE / ALBUMIN / ALKALINE PHOSPHATASE / ASPARTATE AMINOTRANSFERASE / BLOOD UREA NITROGEN / CARBON DIOXIDE / CHLORIDE / CHOLESTEROL / CREATINE PHOSPHOKINASE / CREATININE / GLUCOSE / LACTATE DEHYDROGENASE / LIPASE / PHOSPHORUS / POTASSIUM / SODIUM / TOTAL BILIRUBIN / TOTAL PROTEIN / URIC ACID: tissue Plasma
# [1] = 0 mg/kg, 72 h, dose level Control, time 3 day
# [2] = 0 mg/kg, 120 h, dose level Control, time 5 day
# [3] = 0.8 mg/kg, 72 h, dose level Low, time 3 day
smiles,measurement,setting,value
Oc1c(Cl)cc(Cl)c(Cl)c1Cc1c(O)c(Cl)cc(Cl)c1Cl [HEXACHLOROPHENE],ABSOLUTE BASOPHIL,[1],0 CELLS/uL
same,ABSOLUTE EOSINOPHIL,[1],92.33 CELLS/uL
same,ABSOLUTE LYMPHOCYTE,[1],12247.5 CELLS/uL
same,ABSOLUTE MONOCYTE,[1],389.67 CELLS/uL
same,ABSOLUTE SEGMENTED NEUTROPHIL,[1],1320.5 CELLS/uL
same,BASOPHIL,[1],0%
same,EOSINOPHIL,[1],0.67%
same,ERYTHROCYTE COUNT,[1],5.45 x10E6/uL
same,HEMATOCRIT,[1],34.85%
same,HEMOGLOBIN,[1],12.97 G/DL
same,LEUKOCYTE COUNT,[1],14.05 x10E3/uL
same,LYMPHOCYTE,[1],87.33%
same,MEAN CORPUSCULAR HEMOGLOBIN,[1],23.78 pg
same,MEAN CORPUSCULAR HEMOGLOBIN CONCENTRATION,[1],37.22 G/DL
same,MEAN CORPUSCULAR VOLUME,[1],63.93 fL
same,MONOCYTE,[1],2.67%
same,NEUTROPHIL,[1],9.33%
same,NUCLEATED RED BLOOD CELLS,[1],0 /100WBC
same,PLATELET COUNT,[1],1174 x10E3/uL
same,ALANINE AMINOTRANSFERASE,[1],48.83 u/L
same,ALBUMIN,[1],4.23 G/DL
same,ALKALINE PHOSPHATASE,[1],351.5 u/L
same,ASPARTATE AMINOTRANSFERASE,[1],90 u/L
same,BLOOD UREA NITROGEN,[1],15.33 mg/dL
same,CARBON DIOXIDE,[1],23 mmol/L
same,CHLORIDE,[1],103.5 MEQ/L
same,CHOLESTEROL,[1],70.5 mg/dL
same,CREATINE PHOSPHOKINASE,[1],651.83 u/L
same,CREATININE,[1],0.22 mg/dL
same,GLUCOSE,[1],180.67 mg/dL
same,LACTATE DEHYDROGENASE,[1],165 u/L
same,LIPASE,[1],9.33 u/L
same,PHOSPHORUS,[1],12.03 mg/dL
same,POTASSIUM,[1],6.17 MEQ/L
same,SODIUM,[1],142.62 MEQ/L
same,TOTAL BILIRUBIN,[1],0.2 mg/dL
same,TOTAL PROTEIN,[1],5.73 G/DL
same,URIC ACID,[1],1.77 mg/dL
same,ABSOLUTE BASOPHIL,[2],0 CELLS/uL
same,ABSOLUTE EOSINOPHIL,[2],0 CELLS/uL
same,ABSOLUTE LYMPHOCYTE,[2],12736.67 CELLS/uL
same,ABSOLUTE MONOCYTE,[2],253.5 CELLS/uL
same,ABSOLUTE SEGMENTED NEUTROPHIL,[2],1193.17 CELLS/uL
same,BASOPHIL,[2],0%
same,EOSINOPHIL,[2],0%
same,ERYTHROCYTE COUNT,[2],5.72 x10E6/uL
same,HEMATOCRIT,[2],36.05%
same,HEMOGLOBIN,[2],13.62 G/DL
same,LEUKOCYTE COUNT,[2],14.18 x10E3/uL
same,LYMPHOCYTE,[2],89.33%
same,MEAN CORPUSCULAR HEMOGLOBIN,[2],23.83 pg
same,MEAN CORPUSCULAR HEMOGLOBIN CONCENTRATION,[2],37.8 G/DL
same,MEAN CORPUSCULAR VOLUME,[2],63.05 fL
same,MONOCYTE,[2],1.83%
same,NEUTROPHIL,[2],8.83%
same,NUCLEATED RED BLOOD CELLS,[2],0 /100WBC
same,PLATELET COUNT,[2],1322.17 x10E3/uL
same,ALANINE AMINOTRANSFERASE,[2],48.83 u/L
same,ALBUMIN,[2],4.27 G/DL
same,ALKALINE PHOSPHATASE,[2],295.17 u/L
same,ASPARTATE AMINOTRANSFERASE,[2],75.83 u/L
same,BLOOD UREA NITROGEN,[2],15.5 mg/dL
same,CARBON DIOXIDE,[2],30.5 mmol/L
same,CHLORIDE,[2],102.33 MEQ/L
same,CHOLESTEROL,[2],76.17 mg/dL
same,CREATINE PHOSPHOKINASE,[2],205.5 u/L
same,CREATININE,[2],0.2 mg/dL
same,GLUCOSE,[2],149.67 mg/dL
same,LACTATE DEHYDROGENASE,[2],124.5 u/L
same,LIPASE,[2],10 u/L
same,PHOSPHORUS,[2],10.93 mg/dL
same,POTASSIUM,[2],6.59 MEQ/L
same,SODIUM,[2],143.1 MEQ/L
same,TOTAL BILIRUBIN,[2],0.2 mg/dL
same,TOTAL PROTEIN,[2],6.05 G/DL
same,URIC ACID,[2],1.45 mg/dL
same,ABSOLUTE BASOPHIL,[3],0 CELLS/uL
same,ABSOLUTE EOSINOPHIL,[3],0 CELLS/uL
same,ABSOLUTE LYMPHOCYTE,[3],12277.33 CELLS/uL
same,ABSOLUTE MONOCYTE,[3],275.33 CELLS/uL
same,ABSOLUTE SEGMENTED NEUTROPHIL,[3],1214 CELLS/uL
same,BASOPHIL,[3],0%
same,EOSINOPHIL,[3],0%
same,ERYTHROCYTE COUNT,[3],5.64 x10E6/uL
same,HEMATOCRIT,[3],34.87%
same,HEMOGLOBIN,[3],13.13 G/DL
same,LEUKOCYTE COUNT,[3],13.77 x10E3/uL
same,LYMPHOCYTE,[3],89.33%
same,MEAN CORPUSCULAR HEMOGLOBIN,[3],23.3 pg
same,MEAN CORPUSCULAR HEMOGLOBIN CONCENTRATION,[3],37.67 G/DL
same,MEAN CORPUSCULAR VOLUME,[3],61.83 fL
same,MONOCYTE,[3],2%
same,NEUTROPHIL,[3],8.67%
same,NUCLEATED RED BLOOD CELLS,[3],0 /100WBC
same,PLATELET COUNT,[3],1307.67 x10E3/uL
same,ALANINE AMINOTRANSFERASE,[3],41.67 u/L
same,ALBUMIN,[3],4.47 G/DL
same,ALKALINE PHOSPHATASE,[3],339.67 u/L
same,ASPARTATE AMINOTRANSFERASE,[3],84 u/L
same,BLOOD UREA NITROGEN,[3],18 mg/dL
same,CARBON DIOXIDE,[3],24.67 mmol/L
same,CHLORIDE,[3],102.67 MEQ/L
same,CHOLESTEROL,[3],79.67 mg/dL
same,CREATINE PHOSPHOKINASE,[3],217.33 u/L
same,CREATININE,[3],0.21 mg/dL
same,GLUCOSE,[3],142.33 mg/dL
same,LACTATE DEHYDROGENASE,[3],343.67 u/L
same,LIPASE,[3],10 u/L
same,PHOSPHORUS,[3],13.23 mg/dL
same,POTASSIUM,[3],6.86 MEQ/L
same,SODIUM,[3],144.73 MEQ/L
same,TOTAL BILIRUBIN,[3],0.23 mg/dL
same,TOTAL PROTEIN,[3],6 G/DL
same,URIC ACID,[3],2 mg/dL
